From PubChem BioAssay (NCI)
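All cell lines were grown in 96-well plates and treated with compound for 48 hours. The concentration for 50% growth inhibition is given as GI50. TGI marks complete inhibition of growth.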

What was measured:
Assay in all cases: NCI-60 cell line screen, 48 h
[1] = system: MDA-N
[2] = system: NCI-H23 lung
[3] = system: NCI-H460 lung
[4] = system: OVCAR-5 ovarian
[5] = system: SNB-19 CNS
[6] = system: SR leukemia
[7] = system: U251 CNS
[8] = system: UACC-62 melanoma
[9] = system: 786-0 renal

Structure (SMILES) | TGI [1] [µM] | TGI [2] [µM] | TGI [3] [µM] | TGI [4] [µM] | TGI [5] [µM] | TGI [6] [µM] | TGI [7] [µM] | GI50 [8] [µM] | TGI [8] [µM] | TGI [9] [µM] | GI50 [2] [µM] | GI50 [3] [µM] | GI50 [4] [µM] | GI50 [5] [µM] | GI50 [6] [µM] | GI50 [7] [µM]
CC(=O)OC(C)c1cc2c(s1)C(=O)c1sccc1C2=O (stereo not given) | 0.0338 | 0.546 | 2.36 | 3.3 | 2.82 | > 100 | 4.4 | 1.38 | 3.05 |  |  |  |  |  |  | 
COc1ccc(/C(=N/O)c2ccccc2-c2nc3ccccc3c(=O)n2-c2ccc(S(=O)(=O)Nc3ncccn3)cc2)cc1C | > 31.6 | 27.6 | > 31.6 | > 31.6 | > 31.6 | 31 | 22.9 |  | 19.9 |  |  |  |  |  |  | 
Cc1cc(-c2nc3c(O)cccc3s2)ccc1N | 76.9 | 89.4 | > 100 |  | 41 | 93.8 | > 100 |  | 26.7 | 95.1 |  |  |  |  |  | 
Oc1ccc(-c2nnc3sc(-c4ccc(F)cc4)nn23)cc1 |  | 84.9 | > 100 | > 100 | > 100 | > 100 | 41.9 | 31.8 | > 100 |  | 27.8 | > 100 | > 100 | 21.3 | 15.1 | 17.3
CCOC(=O)c1[nH]cc(C)c1-c1ccn(-c2ccccc2)c1 | > 100 | > 100 | > 100 | > 100 |  | 72.4 | > 100 |  | > 100 | > 100 |  |  |  |  |  | 
CCNC(=O)Nc1ccccn1 | > 100 | > 100 | > 100 | > 100 | > 100 | > 100 | > 100 |  | > 100 | > 100 |  |  |  |  |  | 
COC(=O)c1ccccc1/C=C1/Cc2ccccc2C1=O | > 100 | > 100 | > 100 | > 100 |  | > 100 | 94.9 |  | > 100 |  |  |  |  |  |  | 
C/C(N=Nc1nc2ccccc2s1)=C1/C=CC=CN1O | > 100 | > 100 | > 100 | 5.95 | > 100 | > 100 | > 100 |  | > 100 | > 100 |  |  |  |  |  | 
CC(C)(C)NC(=O)[C@H]1CC[C@H]2[C@@H]3CC=C4NC(=O)CC[C@]4(C)[C@H]3CC[C@]12C | > 100 | > 100 | > 100 | > 100 | > 100 | > 100 | > 100 |  | > 100 | > 100 |  |  |  |  |  | 
C=C1[C@@H](O)C[C@@]23CC[C@@H]4[C@@]5(C)CC[C@@H](OC(C)=O)C(C)(C)[C@@H]5C[C@@H](OC5OC(COC(C)=O)C(O)C(O)C5O)[C@@]4(C)C2=CC[C@H]3[C@H]1C (stereo not given in full) | 17.5 | 26.5 | 17.2 | 7.08 | 17.5 | 5.07 | 12.5 |  | 20.5 | 18.9 |  |  |  |  |  | 
O=C(O)C1CC(c2ccc(F)cc2)=Nc2ccc(F)cc2S1 (stereo not given) | > 100 | > 100 | > 100 | > 100 | > 100 |  |  |  | > 100 | > 100 |  |  |  |  |  | 
CCN(CC)CCOC(NC(C)=O)(c1ccccc1)c1ccccc1 |  | > 100 | > 100 | > 100 | > 100 | > 100 | > 100 |  | > 100 | > 100 |  |  |  |  |  | 
